pEC50: −log10 of the molar value.
Target: T1, human PPAR alpha (Homo sapiens, UniProt Q07869)
T1 sequence (Q07869 1-468): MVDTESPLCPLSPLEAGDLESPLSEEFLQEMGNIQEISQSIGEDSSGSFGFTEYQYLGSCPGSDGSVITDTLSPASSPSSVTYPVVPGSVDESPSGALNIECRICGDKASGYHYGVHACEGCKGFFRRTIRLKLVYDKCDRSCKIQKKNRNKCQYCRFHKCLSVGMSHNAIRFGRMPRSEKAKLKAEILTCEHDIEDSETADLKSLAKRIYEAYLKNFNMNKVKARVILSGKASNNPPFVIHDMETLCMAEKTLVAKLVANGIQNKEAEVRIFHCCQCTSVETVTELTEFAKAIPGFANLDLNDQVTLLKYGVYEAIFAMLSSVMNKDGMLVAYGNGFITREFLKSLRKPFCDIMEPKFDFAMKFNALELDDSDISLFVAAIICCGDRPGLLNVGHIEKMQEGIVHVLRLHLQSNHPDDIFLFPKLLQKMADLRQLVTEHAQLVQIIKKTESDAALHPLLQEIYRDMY
Experiment: PPAR alpha assay as described in WO03/051821
Type: cell-based
Conditions: assay described in WO03/051821 (incorporated by reference)
Protocol: The compounds of the invention were tested in the assays described in WO03/051821 which is incorporated herein by reference.

- pEC50: 6.11
SMILES: O=C(c1ccccc1)c1ccc(OCCc2ccc(CC(SCCc3ccc(O)cc3)C(=O)O)cc2)cc1 (stereo not shown) [Example 7, 3-{4-[2-(4-Benzoylphenoxy)ethyl]phenyl}-2-{[2-(4-hydroxyphenyl)ethyl]thio}propanoic acid]

From US20060199857A1, “Therapeutic agents” (ASTRAZENECA UK LIMITED, priority 2003, published 2006)
